{"source": "patent US10730851B2", "about": "“Polymorph of triaryldimethylpiperazine dihydrochloride and preparation method and application thereof” (priority 2016, dated 2020)", "key": {"Rough solubility test": {"experiment": "Rough solubility test", "type": "physicochemical", "conditions": "water, thermodynamic from solid", "experimental": "2.0 mg of a free base and 2.0 mg of polymorph forms B, F, P, J and O are respectively taken and placed in 3.0 mL glass bottles. Then the solvent methanol is added step by step, and ultrasound is performed to observe whether the sample is completely dissolved. If the sample is still not completely dissolved after 2.0 mL of solvent is added, the test is stopped to measure the rough solubility of the free base, polymorph forms B, F, P, J and O in methanol respectively.\nUsing the same method, the rough solubility of the free base, polymorph forms B, P, F, J and O in other organic solvents or water listed in Table 6 are determined respectively."}, "[1]": {"experiment": "Dynamic solubility test in water, SGF, FeSSIF, FaSSIF", "type": "physicochemical", "conditions": "for pH in clear solution: dihydrochloride", "experimental": "The dynamic solubility of a free base, polymorph forms B, P, F, J and O in water or a biological medium such as Stimulated Gastric Fluid (SGF), Fed State Simulated Intestinal Fluid (FeSSIF) or Fasted State Simulated Intestinal Fluid (FaSSIF) is determined.\n0.2 g sodium chloride and 0.1 g Triton X-100 is weighed and placed into a 100 mL volumetric flask. Purified water is added to dissolve. A stir is performed until the solid is completely dissolved. About 135 μL concentrated hydrochloric acid solution (37%, […]) is added, then the pH is adjusted to 1.8 with […] hydrochloric acid or 1 mmoL/L sodium hydroxide. Finally, the volume is fixed with purified water to obtain Stimulated Gastric Fluid (SGF) for later use.\nEach of 0.41 mL glacial acetic acid, 0.20 g sodium hydroxide and 0.59 g sodium chloride is weighed and placed to a 50 mL volumetric flask. About 48 mL purified water is added to dissolve, the pH is adjusted to 5.0 with 1 mmoL/L hydrochloric acid or 1 mmoL/L sodium hydroxide, and the volume is fixed with purified water. Then 0.56 g of Simulated Intestinal Fluid powder (SIF powder for short, which is composed of […] with a molar ratio of 4:1) is added, stirred and ultrasonically dissolved to obtain Fed State Simulated Intestinal Fluid (FeSSIF) for later use.\nEach of 0.17 g of anhydrous sodium dihydrogen phosphate (NaH2PO4), 0.021 g of sodium hydroxide and 0.31 g of sodium chloride is weighed and placed into a 50 mL volumetric flask. About 48 mL of purified water is added to dissolve, the pH is adjusted to 6.5 with 1 mmoL/L hydrochloric acid or 1 mmoL/L sodium hydroxide, and the volume is fixed with purified water. 0.11 g of SIF powder is added, stirred and ultrasonically dissolved to obtain Fasted State Simulated Intestinal Fluid (FaSSIF) for later use.\nEach 30 mg of the free base, and polymorph forms B, P, F, J and O are weighed. 3 mL of purified water, Stimulated Gastric Fluid (SGF), Fed State Simulated Intestinal Fluid (FeSSIF) or Fasted State Simulated Intestinal Fluid (FaSSIF)) is added and oscillated at room temperature. 0.6 mL of suspension is taken each time at a set time point, filtered and separated with a 0.45 μm nylon filter membrane, then XRPD characterization is performed on the solid sample, and the concentration in the clear solution is measured by HPLC."}, "[2]": {"experiment": "Dynamic moisture adsorption", "type": "physicochemical"}, "[3]": {"experiment": "Relative bioavailability test", "type": "in vivo, SPF-grade SD rats", "conditions": "rat, in vivo, po", "experimental": "HPLC-MS/MS method is used to detect the blood drug concentration of target drugs in SPF-grade SD rats, and the relative bioavailability of 0.5% CMC-Na suspension of a free base and 0.5% CMC-Na solution of a polymorph form P are calculated and compared.\n60.46 mg of a free base is accurately weighed and placed into a 15 mL centrifuge tube, 12 mL of 0.5% CMC-Na solution is measured and added into the centrifuge tube with a measuring cylinder, vortexed for 5 min, and ultrasonically dispersed for 15 min to obtain 0.5% CMC-Na suspension of free base with a concentration of 5.04 mg/ml, which is currently formulated when using and vibrated at any time during administration.\n60.05 mg of a polymorph form P is accurately weighed and placed into a 15 mL centrifuge tube, 12 mL of 0.5% CMC-Na solution is measured and added into the centrifuge tube with a measuring cylinder, vortexed for 5 min, and ultrasonically dispersed for 15 min to obtain 0.5% CMC-Na solution of 5.00 mg/mL polymorph form P, which is currently formulated when using.\nTwelve SPF-grade SD rats are selected and randomly divided into a free base group and a polymorph form P group with 6 rats in each group (both male and female). Animals are fasted for 12 h but have free access to water. Weighing is performed and, the administration volume of each rat is calculated according to the animal weight, so that the administration dose is 20 mg/kg·bw. During administration, the drugs are each administrated by gavage, and 0.5% CMC-Na suspension/solution of the above two target drugs are extracted by 2 mL syringe respectively. The gavage needle is inserted into the stomach from the corner of the rat's mouth and pushed the solution thereto.\nBlood is collected from the fundus venous plexus of rats at 0.2 mL before (0 h) and 0.5, 1, 2, 4, 6, 8, 12 and 24 h after administration, anticoagulated with 300 IU/mL heparin (1:20) and centrifuged (3000 r/min) for 15 min. After plasma separation, the blood drug concentration of the target drug is determined by HPLC-MS/MS.\nReferring to the above-mentioned bioavailability test of the polymorph form P, the bioavailability tests of polymorph forms F, O, B and J are conducted respectively. Different from the bioavailability test of the polymorph form P, rats are given 0.5% CMC-Na solution of the polymorph form F, O, B or J by gavage respectively. Other operations are the same as the above bioavailability test."}}, "note": "Where a name gives a salt, the structure may show the parent alone. Read-outs that look alike come from different tables or passages of the source."}
{"molecule": "CC1CCN(C(=O)c2ccc([C@H](c3cccc(O)c3)N3C[C@@H](C)N(Cc4cccc(F)c4)C[C@@H]3C)cc2)CC1", "note": "[Polymorph form B, (4-((R)-((2S,5R)-4-(3-fluorobenzyl)-(2,5-dimethylpiperazine-1-yl)(3-hydroxyphenyl)methyl)phenyl)(4-methylpiperidine-1-yl)methanone dihydrochloride]", "values": [{"measurement": "Solubility", "setting": "Rough solubility test", "value": "6.4 to 7.2", "unit": "mg/mL"}, {"measurement": "solubility compared with the free base", "setting": "[1]", "value": "significantly improved"}, {"measurement": "pH in clear solution", "setting": "[1]; FaSSIF, Time 1", "value": 2.5}, {"measurement": "pH in clear solution", "setting": "[1]; FaSSIF, Time 2", "value": 2.6}, {"measurement": "pH in clear solution", "setting": "[1]; FaSSIF, Time 4", "value": 2.5}, {"measurement": "pH in clear solution", "setting": "[1]; FaSSIF, Time 24", "value": 2.3}, {"measurement": "pH in clear solution", "setting": "[1]; FeSSIF, Time 1", "value": 4.8}, {"measurement": "pH in clear solution", "setting": "[1]; FeSSIF, Time 2", "value": 4.8}, {"measurement": "pH in clear solution", "setting": "[1]; FeSSIF, Time 4", "value": 4.8}, {"measurement": "pH in clear solution", "setting": "[1]; FeSSIF, Time 24", "value": 4.6}, {"measurement": "pH in clear solution", "setting": "[1]; SGF, Time 1", "value": 1.5}, {"measurement": "pH in clear solution", "setting": "[1]; SGF, Time 2", "value": 1.5}, {"measurement": "pH in clear solution", "setting": "[1]; SGF, Time 4", "value": 1.5}, {"measurement": "pH in clear solution", "setting": "[1]; SGF, Time 24", "value": 1.5}, {"measurement": "pH in clear solution", "setting": "[1]; Water, Time 1", "value": 1.8}, {"measurement": "pH in clear solution", "setting": "[1]; Water, Time 2", "value": 1.8}, {"measurement": "pH in clear solution", "setting": "[1]; Water, Time 4", "value": 1.8}, {"measurement": "pH in clear solution", "setting": "[1]; Water, Time 24", "value": 1.7}, {"measurement": "solubility compared with the free base", "setting": "[1]; pH 1.8", "value": "close to or slightly improved"}, {"measurement": "Crystal form change under dynamic moisture adsorption", "setting": "[2]", "value": "change into amorphous"}, {"measurement": "bioavailability compared with free base", "setting": "[3]", "value": "better bioavailability than free base"}]}
